{
  "source": "paper PMC11123841",
  "about": "“Discovery and Synthesis of Hydroxy-L-Proline Blockers of the Neutral Amino Acid Transporters SLC1A4 (ASCT1) and SLC1A5 (ASCT2)” (Molecules, 2024)",
  "key": {"SLC38A1 (ATA1)": {"target": "T1, SLC38A1 (ATA1) (Homo sapiens, UniProt Q9H2H9)", "T1 construct": "expressed in transfected cells; host or cells: Xenopus laevis oocytes (cRNA injection)", "T1 sequence (Q9H2H9 1-487)": "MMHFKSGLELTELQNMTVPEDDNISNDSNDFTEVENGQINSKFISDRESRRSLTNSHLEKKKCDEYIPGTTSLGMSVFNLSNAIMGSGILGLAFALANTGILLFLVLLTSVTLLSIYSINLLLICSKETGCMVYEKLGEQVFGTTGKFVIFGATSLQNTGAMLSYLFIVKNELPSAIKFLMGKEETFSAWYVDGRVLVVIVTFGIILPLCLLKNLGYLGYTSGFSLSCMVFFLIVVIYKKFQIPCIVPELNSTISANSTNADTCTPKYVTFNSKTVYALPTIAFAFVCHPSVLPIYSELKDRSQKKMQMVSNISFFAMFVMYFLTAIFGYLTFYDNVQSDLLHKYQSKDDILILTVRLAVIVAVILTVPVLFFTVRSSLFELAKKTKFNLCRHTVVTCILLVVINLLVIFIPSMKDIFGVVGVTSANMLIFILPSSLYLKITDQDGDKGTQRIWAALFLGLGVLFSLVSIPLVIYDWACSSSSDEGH", "assay": "TEVC electrogenic coupled currents in oocytes", "type": "cell-based", "settings": "100 µM L-alanine, 3 µM BPOHP", "protocol": "BPOHP activity was evaluated against the glutamate transporters paralogs within the SLC1A gene family (SLC1A 1–3) as well as at neutral amino acid transporters that share common ligand substrates with the SLC1 family including SLC38A1,2, and 4 (ATA1, ATA2, ATA3) and heteromeric transporters SLC7A10+SLC3A2 (asc-1/4f2). […] Finally, radiolabeled [^3H]D-serine uptake was used to assess the electroneutral SLC7A10+SLC3A2 transporter, in which 10 µM BPOHP had no effect (Figure S3).\n(§1) Uptake was halted by washing 3 times with 4 °C ND96 buffer. Oocytes were then lysed in 0.1% Triton X-100, and radioactivity was counted via liquid scintillation. Dose response curves were generated by fitting fractional inhibition (I) to the expression I = Imax × [inhibitor]/([inhibitor] + IC50).\n(§2) Two-electrode voltage clamp (TEVC) transporter currents were recorded with a GeneClamp 500 amplifier and Digidata 1320A analog–digital interface (Molecular Devices, San Jose, CA, USA). […] Data were acquired with Axograph (v1.7.6) and LabChart (v7) and analyzed with Kaleidagraph software (v4.1) (Synergy, Reading, PA, USA). Uncoupled anion currents associated with the transport of substrate and block of SLC1A4 or SLC1A5 mediated leak conductance were recorded in the presence of Ringer with 50% substitution of NaCl by NaSCN to amplify the non-transported anion conductance. […]"}, "SLC38A2 (ATA2)": {"target": "T2, SLC38A2 (ATA2) (Homo sapiens, UniProt Q96QD8)", "T2 construct": "expressed in transfected cells; host or cells: Xenopus laevis oocytes (cRNA injection)", "T2 sequence (Q96QD8 1-506)": "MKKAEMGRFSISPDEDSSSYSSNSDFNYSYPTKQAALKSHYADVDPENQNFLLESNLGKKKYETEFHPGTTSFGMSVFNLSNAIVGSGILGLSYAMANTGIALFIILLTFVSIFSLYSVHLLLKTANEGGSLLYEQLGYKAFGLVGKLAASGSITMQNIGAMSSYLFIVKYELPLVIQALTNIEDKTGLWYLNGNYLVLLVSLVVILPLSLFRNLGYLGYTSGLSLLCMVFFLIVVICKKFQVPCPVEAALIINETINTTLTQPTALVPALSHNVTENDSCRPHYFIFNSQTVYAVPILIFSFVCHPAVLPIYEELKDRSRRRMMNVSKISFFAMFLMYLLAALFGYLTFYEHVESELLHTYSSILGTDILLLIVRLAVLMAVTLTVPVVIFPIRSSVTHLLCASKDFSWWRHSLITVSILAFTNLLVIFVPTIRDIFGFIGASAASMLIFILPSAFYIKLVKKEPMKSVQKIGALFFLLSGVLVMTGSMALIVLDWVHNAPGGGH", "assay": "TEVC electrogenic coupled currents in oocytes", "type": "cell-based", "settings": "100 µM L-alanine, 3 µM BPOHP", "protocol": "Additionally, 4-HP applied at 1 mM was used to assess activity at the glutamate transporters SLC1A3 or SLC1A1.\nBPOHP activity was evaluated against the glutamate transporters paralogs within the SLC1A gene family (SLC1A 1–3) as well as at neutral amino acid transporters that share common ligand substrates with the SLC1 family including SLC38A1,2, and 4 (ATA1, ATA2, ATA3) and heteromeric transporters SLC7A10+SLC3A2 (asc-1/4f2).\nas §1, §2"}},
  "note": "Entries after “also recorded” stand apart in the source; their conditions may differ.",
  "data": [
    {"smiles": "O=C(O)[C@H]1NC[C@@H](OCc2ccc(-c3ccccc3)cc2)[C@@H]1O", "note": "[14e]", "values": [
      {"measurement": "block of L-alanine current", "setting": "SLC38A1 (ATA1)", "value": "no effect; also recorded: no discernible block; also recorded: no inhibition was detected"},
      {"measurement": "block of L-alanine current", "setting": "SLC38A2 (ATA2)", "value": "no effect; also recorded: no discernible block; also recorded: no inhibition was detected"}
    ]}
  ]
}
